Laboratory results from BindingDB's records for doi:10.7270/Q2930RK5 (University of Pittsburgh, 2008).

Target: Serine/threonine-protein kinase PLK1 (Homo sapiens, UniProt P53350)
Experiment: activity against human Plk1 kinase – biochemical, selectivity assay for PKD inhibitor project, dose response (AID 1383)

Sequence of Serine/threonine-protein kinase PLK1 (P53350 whole entry): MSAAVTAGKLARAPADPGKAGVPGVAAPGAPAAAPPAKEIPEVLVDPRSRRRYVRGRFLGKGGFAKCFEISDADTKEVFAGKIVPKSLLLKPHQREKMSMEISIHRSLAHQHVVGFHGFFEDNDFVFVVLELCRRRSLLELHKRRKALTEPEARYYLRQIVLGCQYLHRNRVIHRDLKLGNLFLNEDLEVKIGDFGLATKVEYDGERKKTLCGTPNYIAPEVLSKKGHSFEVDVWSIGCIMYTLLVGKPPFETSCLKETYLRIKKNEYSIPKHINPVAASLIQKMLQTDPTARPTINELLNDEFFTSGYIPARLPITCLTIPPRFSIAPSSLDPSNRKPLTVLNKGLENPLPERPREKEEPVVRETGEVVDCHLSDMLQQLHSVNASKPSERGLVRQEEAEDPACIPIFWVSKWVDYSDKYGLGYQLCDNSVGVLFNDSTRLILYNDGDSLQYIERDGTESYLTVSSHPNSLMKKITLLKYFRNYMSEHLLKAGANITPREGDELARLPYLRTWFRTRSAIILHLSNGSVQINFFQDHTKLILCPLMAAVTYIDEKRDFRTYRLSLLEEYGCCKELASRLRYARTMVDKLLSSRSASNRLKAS

Clc1cncc(Cl)c1N=NCc1ccncc1 [SMR000206620]
IC50: > 50 µM

CS(=O)(=O)N1CCN(c2ccccc2NC(=O)c2ccc(Br)o2)CC1 [MLS000123947]
IC50: > 50 µM

NC(=O)c1cn([C@@H]2O[C@H](CO)[C@@H](O)[C@H]2O)c2ncnc(N)c12 [MLS000517268]
IC50: 12.1 µM

CCC(=O)Nc1c2c(nn1-c1ccccc1C)CSC2 [MLS000087884]
IC50: > 50 µM

Cc1cc(NCCCN)nc(-c2ccccc2O)n1 [MLS000079650]
IC50: > 50 µM

CCC1=NNc2cccc3c(OC)ccc1c23 [SMR000140796]
IC50: > 50 µM

CC(=O)Oc1cc(OC(C)=O)c2c(C)cc(=O)oc2c1 [(5-acetyloxy-4-methyl-2-oxochromen-7-yl) acetate]
IC50: > 50 µM

N=C(N)NC(=O)c1nc(Cl)c(N)nc1N [3,5-diamino-N-carbamimidoyl-6-chloropyrazine-2-carboxamide]
IC50: 6.63 µM

O=C(Nc1ccc(CN2CCOCC2)cc1)c1ccc(-c2cccc(Cl)c2)o1 [MLS000557592]
IC50: > 50 µM
